Test results: patent US20190210973A1, “COMPOUNDS AND METHODS FOR TREATMENT OF CYSTIC FIBROSIS” (The Curators of the University of Missouri, priority 2018, published 2019)
Where “and” joins values, the source holds several entries; their conditions need not be identical. Identical values can stand only once. Entries after “also recorded” stand apart in the source; their conditions may differ.

Molecular target: delF508-CFTR (Homo sapiens, UniProt P13569, DEL508-508)
Test: Western blot of delF508-CFTR membrane (surface) expression, Band C
Assay type: cell-based
Parameters: delF508 stably-transfected C127 cells were cultured in DMEM with 10% FBS in 6-well plates; expressed in transfected cells; host or cells: C127 cells stably expressing delF508-CFTR
Details: for influence on the effect of Lumacaftor (VX-809) on membrane expression of delF508-CFTR (words): added to 3 μM VX-809
Excerpt: The amount of CFTR proteins in the cell membrane can be determined with Western blot analysis. Like all membrane proteins in the cell, the CFTR protein is synthesized in the endoplasmic reticulum (ER), translocated to the Golgi apparatus for glycosylation before trafficked to the plasma membrane. Because of the addition of complex sugar molecules to CFTR, the molecular weight of “mature” or post-Golgi CFTR in the plasma membrane is higher than that of newly synthesized proteins in the ER. Thus, in Western blot, it is possible to discern two distinct bands: band C representing high molecular weight, mature CFTR, and band B low molecular weight, immature CFTR. While wild-type proteins are present mostly as band C, Class II disease-associated mutations such as delF508 causes a drastic diminution of band C, resulting in an effective decrease of N in the formula N×Po×i. The effects of the reagents (or CFTR correctors) that enhance band C can thus be quantitatively assessed with the Western blot analysis. By the same token, any interactions between different compounds, with positive or negative impact on band C, can be determined with this assay.
Western blot experiments were carried out in both transient expression system (CHO cells) and a stable cell line (C127 cells). CHO cells, grown in 35 mm dishes, were transfected with delF508-CFTR construct in pcDNA plasmids using X-tremeGENE (Roche). Six hours after transfection, tested compounds were added to the medium. In case of delF508-CFTR-expressing stable C127 cells, compounds were added to the medium at about 30% confluence. In both cases, cells were lysed 18 hours post drug treatment using 1×SDS loading buffer. Cell lysates were sheared by pushed through 18G needles. Whole cell lysate were separated in 4˜20% gradient gels (Bio-Rad Laboratories) and transferred onto nitrocellulose membranes. The membranes were blocked with 5% milk in TBST buffer (20 mM Tris, 137 mM NaCl, 0.1% Tween 20) at 4° C. overnight. The membranes were then probed with anti-CFTR antibody (AB596 from the Cystic Fibrosis Foundation) and anti-vimentin antibody as a control (Santa Cruz Biotechnology) at room temperature for two hours. The membranes were washed with TBST five times and then incubated with anti-mouse IgG, HRP-linked antibody (Cell Signaling Technology) at room temperature for one hour. The membranes were washed three times with TBST and developed with chemiluminescence reagent (Thermo Scientific). The luminescence was detected and quantified by a Molecular Image Chemi Doc (Bio-Rad Laboratories).
For Western blotting experiments, delF508 stably-transfected C127 cells were cultured in DMEM with 10% FBS in 6-well plates. Different tested compounds were added to the culture medium within 24 hours of passage to the desired concentration. Cells were lysed 18 hours post drug treatment using 1×SDS loading buffer. Cell lysates were sheared by pushed through 18G needles. Whole cell lysates were separated in 4-20% gradient gels (Bio-Rad Laboratories) and transferred onto nitrocellulose membranes. The membranes were blocked with 5% milk in TBST buffer (20 mM Tris, 137 mM NaCl, 0.1% Tween 20) at 4° C. overnight. The membranes were then probed with anti-CFTR antibody (AB660 from CFTR foundation) and anti-vimentin antibody as a loading control (Santa Cruz Biotechnology) at room temperature for two hours. The membranes were washed with TBST five times and then incubated with anti-mouse IgG, HRP linked antibody (Cell Signaling Technology) at room temperature for one hour. The membranes were washed three times with TBST and developed with chemiluminescence reagent (Thermo Scientific). The luminescence was detected by a Molecular Image Chemi Doc (Bio-Rad Laboratories). […]

delF508-CFTR, sequence (P13569 with tags, fused parts or gaps DEL508-508): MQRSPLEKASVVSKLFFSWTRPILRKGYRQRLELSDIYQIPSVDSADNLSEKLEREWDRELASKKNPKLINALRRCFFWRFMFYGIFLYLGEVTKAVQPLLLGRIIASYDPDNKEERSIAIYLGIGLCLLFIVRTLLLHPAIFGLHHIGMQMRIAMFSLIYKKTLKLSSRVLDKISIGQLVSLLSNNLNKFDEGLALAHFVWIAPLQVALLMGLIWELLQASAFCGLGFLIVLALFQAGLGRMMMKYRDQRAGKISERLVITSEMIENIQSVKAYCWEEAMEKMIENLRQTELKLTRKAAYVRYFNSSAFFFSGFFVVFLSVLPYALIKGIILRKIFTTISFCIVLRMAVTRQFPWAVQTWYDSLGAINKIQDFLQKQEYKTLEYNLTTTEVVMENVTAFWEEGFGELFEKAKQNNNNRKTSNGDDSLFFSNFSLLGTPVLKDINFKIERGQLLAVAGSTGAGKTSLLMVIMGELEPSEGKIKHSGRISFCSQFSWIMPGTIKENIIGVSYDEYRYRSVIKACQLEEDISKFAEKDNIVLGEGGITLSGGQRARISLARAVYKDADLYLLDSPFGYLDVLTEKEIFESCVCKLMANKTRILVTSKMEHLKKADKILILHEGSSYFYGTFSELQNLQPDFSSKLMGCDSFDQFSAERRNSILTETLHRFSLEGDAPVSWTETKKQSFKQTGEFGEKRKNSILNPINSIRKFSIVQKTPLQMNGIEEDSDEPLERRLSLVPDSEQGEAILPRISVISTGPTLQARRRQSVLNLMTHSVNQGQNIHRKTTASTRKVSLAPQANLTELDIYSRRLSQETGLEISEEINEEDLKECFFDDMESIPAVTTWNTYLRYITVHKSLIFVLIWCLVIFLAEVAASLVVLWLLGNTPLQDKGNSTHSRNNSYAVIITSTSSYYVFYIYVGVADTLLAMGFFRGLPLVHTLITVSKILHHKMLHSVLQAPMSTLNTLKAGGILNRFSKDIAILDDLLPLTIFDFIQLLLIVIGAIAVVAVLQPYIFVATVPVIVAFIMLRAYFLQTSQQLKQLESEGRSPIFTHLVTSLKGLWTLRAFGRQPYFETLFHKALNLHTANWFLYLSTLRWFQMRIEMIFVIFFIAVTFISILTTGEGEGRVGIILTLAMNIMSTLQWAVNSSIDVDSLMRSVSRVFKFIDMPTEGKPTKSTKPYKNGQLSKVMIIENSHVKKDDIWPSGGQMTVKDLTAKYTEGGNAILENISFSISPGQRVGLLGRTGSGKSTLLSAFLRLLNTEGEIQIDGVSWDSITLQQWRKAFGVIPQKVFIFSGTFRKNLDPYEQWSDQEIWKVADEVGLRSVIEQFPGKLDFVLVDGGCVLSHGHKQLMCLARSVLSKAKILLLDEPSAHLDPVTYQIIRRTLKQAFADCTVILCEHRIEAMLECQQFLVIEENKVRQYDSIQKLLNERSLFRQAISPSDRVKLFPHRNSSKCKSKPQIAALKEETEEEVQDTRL

SMILES: CC(C)(C)c1cc(C(C)(C)C)c(NC(=O)c2c[nH]c3ccccc3c2=O)cc1O [VX-770, Ivacaftor, reference compound]
- surface expression of delF508-CFTR (Band C, corrected to vimentin, DMSO = 100) (3 μM VX-809 + 1 μM VX-770, C127 cells, lane 6, one value per experiment series): 334 ± 81, N = 5 and 182 ± 57, N = 4 and 172 ± 50, N = 4
- influence on the effect of Lumacaftor (VX-809) on membrane expression of delF508-CFTR (words): dampens this effect; also recorded: dampens the effect of VX-809
- influence on the effect of Lumacaftor (VX-809) on membrane expression of delF508-CFTR (words) (listed as Ivacaftor): diminishes the effect of Lumacaftor
